From PubChem BioAssay AID250 (DTP/NCI, 2004)
Where “and” joins values, the source holds several entries; their conditions need not be identical. Identical values can stand only once. Inconclusive results and toxic doses are left out. The calls were made as follows: active = survival T/C of 150% or more; inactive = T/C below 125% in these data.

System: BDF1 mice, L1210 leukemia sc, survival T/C
Assay: NCI In Vivo Anticancer Drug Screen. Data for tumor model L1210 Leukemia (subcutaneous) in B6D2F1 (BDF1) mice
Conditions: endpoint: median survival time, higher = longer survival
Summary of the method: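 Antitumor activity is assessed in mice with transplanted tumors by comparing the treated group (T) with the vehicle control group (C).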

[1] = dose: 300.0 mg/kg/injection, schedule: Q01DX Z (sc), vehicle: methylcellulose (MC)
[2] = dose: 14.0 mg/kg/injection, schedule: Q01DX Z (sc), vehicle: water

Measured: T/C

N=C(N)SCc1c2ccccc2c(CSC(=N)N)c2ccccc12
inactive: dose: 25.0 mg/kg/injection, schedule: Q01DX009 (ip), vehicle: steriod suspending solution 110 % of control | dose: 50.0 mg/kg/injection, schedule: Q01DX009 (ip), vehicle: steriod suspending solution 110 % of control | dose: 50.0 mg/kg/injection, schedule: Q01DX009 (sc), vehicle: steriod suspending solution 120 % of control | dose: 50.0 mg/kg/injection, schedule: Q04DX003 (ip), vehicle: steriod suspending solution 100 % of control | dose: 62.5 mg/kg/injection, schedule: Q01DX001 (ip), vehicle: steriod suspending solution 100 % of control | dose: 100.0 mg/kg/injection, schedule: Q04DX003 (ip), vehicle: steriod suspending solution 110 % of control | dose: 100.0 mg/kg/injection, schedule: Q04DX003 (sc), vehicle: steriod suspending solution 100 % of control | dose: 125.0 mg/kg/injection, schedule: Q01DX001 (ip), vehicle: steriod suspending solution 110 % of control | dose: 125.0 mg/kg/injection, schedule: Q01DX001 (sc), vehicle: steriod suspending solution 110 % of control | dose: 200.0 mg/kg/injection, schedule: Q01DX009 (sc), vehicle: steriod suspending solution 120 % of control | dose: 200.0 mg/kg/injection, schedule: Q04DX003 (sc), vehicle: steriod suspending solution 105 % of control | dose: 250.0 mg/kg/injection, schedule: Q01DX001 (ip), vehicle: steriod suspending solution 110 % of control | dose: 400.0 mg/kg/injection, schedule: Q01DX009 (sc), vehicle: steriod suspending solution 110 % of control | dose: 400.0 mg/kg/injection, schedule: Q04DX003 (sc), vehicle: steriod suspending solution 110 % of control | dose: 500.0 mg/kg/injection, schedule: Q01DX001 (sc), vehicle: steriod suspending solution 105 % of control | dose: 800.0 mg/kg/injection, schedule: Q01DX009 (sc), vehicle: steriod suspending solution 110 % of control | dose: 800.0 mg/kg/injection, schedule: Q04DX003 (sc), vehicle: steriod suspending solution 100 % of control | dose: 1000.0 mg/kg/injection, schedule: Q01DX001 (sc), vehicle: steriod suspending solution 110 % of control | dose: 2000.0 mg/kg/injection, schedule: Q01DX001 (sc), vehicle: steriod suspending solution 100 % of control

Nc1ccc(O)cc1
inactive: dose: 130.0 mg/kg/injection, schedule: Q01DX Z (sc), vehicle: other 95 % of control | dose: 216.0 mg/kg/injection, schedule: Q01DX Z (sc), vehicle: other 116 % of control | [1] 112 % of control | dose: 500.0 mg/kg/injection, schedule: Q01DX Z (sc), vehicle: methylcellulose (MC) 112 % of control | dose: 600.0 mg/kg/injection, schedule: Q01DX Z (sc), vehicle: other 87 % of control

CSc1ncnc2c1ncn2C1OC(CO)C(O)C1O (stereo unspecified)
inactive: dose: 5.0 mg/kg/injection, schedule: Q#A X Z (sc), vehicle: water 100 % of control | dose: 8.4 mg/kg/injection, schedule: Q#A X Z (sc), vehicle: water 100 % of control | [2] 100 % of control | dose: 14.0 mg/kg/injection, schedule: Q#A X Z (sc), vehicle: water 105 % of control | dose: 23.0 mg/kg/injection, schedule: Q01DX Z (sc), vehicle: water 100 % of control and 105 % of control | dose: 23.0 mg/kg/injection, schedule: Q02DX Z (sc), vehicle: water 100 % of control | dose: 23.0 mg/kg/injection, schedule: Q#A X Z (sc), vehicle: water 111 % of control | dose: 39.0 mg/kg/injection, schedule: Q01DX Z (sc), vehicle: water 111 % of control | dose: 39.0 mg/kg/injection, schedule: Q02DX Z (sc), vehicle: water 105 % of control | dose: 39.0 mg/kg/injection, schedule: Q## X Z (sc), vehicle: water 111 % of control | dose: 39.0 mg/kg/injection, schedule: Q#A X Z (sc), vehicle: water 111 % of control | dose: 65.0 mg/kg/injection, schedule: Q01DX001 (sc), vehicle: water 100 % of control | dose: 65.0 mg/kg/injection, schedule: Q01DX Z (sc), vehicle: water 111 % of control | dose: 65.0 mg/kg/injection, schedule: Q02DX Z (sc), vehicle: water 100 % of control | dose: 65.0 mg/kg/injection, schedule: Q## X Z (sc), vehicle: water 105 % of control | dose: 108.0 mg/kg/injection, schedule: Q01DX001 (sc), vehicle: water 111 % of control | dose: 108.0 mg/kg/injection, schedule: Q01DX Z (sc), vehicle: water 122 % of control | dose: 108.0 mg/kg/injection, schedule: Q02DX Z (sc), vehicle: water 111 % of control | dose: 108.0 mg/kg/injection, schedule: Q## X Z (sc), vehicle: water 111 % of control | dose: 180.0 mg/kg/injection, schedule: Q01DX001 (sc), vehicle: water 122 % of control | dose: 180.0 mg/kg/injection, schedule: Q02DX Z (sc), vehicle: water 105 % of control | dose: 180.0 mg/kg/injection, schedule: Q## X Z (sc), vehicle: water 116 % of control | dose: 300.0 mg/kg/injection, schedule: Q01DX001 (sc), vehicle: water 122 % of control | dose: 300.0 mg/kg/injection, schedule: Q## X Z (sc), vehicle: water 122 % of control

O=c1[nH]cc(S)c(=O)[nH]1
inactive: dose: 23.0 mg/kg/injection, schedule: Q01DX Z (sc), vehicle: other 100 % of control | dose: 39.0 mg/kg/injection, schedule: Q01DX Z (sc), vehicle: other 100 % of control | dose: 65.0 mg/kg/injection, schedule: Q01DX Z (sc), vehicle: other 100 % of control | dose: 108.0 mg/kg/injection, schedule: Q01DX Z (sc), vehicle: other 110 % of control | dose: 180.0 mg/kg/injection, schedule: Q01DX Z (sc), vehicle: other 110 % of control | dose: 300.0 mg/kg/injection, schedule: Q01DX Z (sc), vehicle: other 100 % of control

S=c1nc[nH]c2c1ncn2C1CCCO1 (stereo unspecified)
inactive: dose: 108.0 mg/kg/injection, schedule: Q01DX Z (sc), vehicle: methylcellulose (MC) 120 % of control | dose: 180.0 mg/kg/injection, schedule: Q01DX Z (sc), vehicle: methylcellulose (MC) 120 % of control | [1] 100 % of control

CN(C)c1ccc(/C=C/c2ccnc3ccccc23)cc1
inactive: dose: 0.65 mg/kg/injection, schedule: Q01DX Z (sc), vehicle: water 100 % of control | dose: 1.08 mg/kg/injection, schedule: Q01DX Z (sc), vehicle: water 100 % of control | dose: 1.8 mg/kg/injection, schedule: Q01DX Z (sc), vehicle: water 104 % of control | dose: 3.0 mg/kg/injection, schedule: Q01DX Z (sc), vehicle: water 100 % of control | dose: 5.0 mg/kg/injection, schedule: Q01DX Z (sc), vehicle: water 100 % of control | dose: 6.0 mg/kg/injection, schedule: Q01DX Z (sc), vehicle: water 100 % of control | dose: 8.4 mg/kg/injection, schedule: Q01DX Z (sc), vehicle: water 100 % of control | dose: 10.0 mg/kg/injection, schedule: Q01DX Z (sc), vehicle: water 100 % of control | [2] 100 % of control | dose: 17.0 mg/kg/injection, schedule: Q01DX Z (sc), vehicle: water 100 % of control | dose: 28.0 mg/kg/injection, schedule: Q01DX Z (sc), vehicle: water 100 % of control | dose: 47.0 mg/kg/injection, schedule: Q01DX Z (sc), vehicle: water 100 % of control | dose: 78.0 mg/kg/injection, schedule: Q01DX Z (sc), vehicle: water 110 % of control | dose: 130.0 mg/kg/injection, schedule: Q01DX Z (sc), vehicle: water 100 % of control
